Molecules are shown by their SMILES.

The record followed here is ChEMBL document CHEMBL3886981, “Phenylpyrazole derivatives as potent ROCK1 and ROCK2 inhibitors” (2016).

The assay has as its target Rho-associated protein kinase 2 (Homo sapiens, UniProt O75116). Description: In Vitro Assay: The effectiveness of compounds of the present invention as ROCK inhibitors can be determined in a 30 μL assay containing 20 mM HEPES, pH 7.5, 20 mM MgCl2, 0.015% Brij-35, 4 mM DTT, 5 μM ATP and 1.5 μM peptide substrate (FITC-AHA-[…]-OH). Compounds were dissolved in DMSO so that the final concentration of DMSO was <2%, and the reaction was initiated with Rho kinase variants. After incubation, the reaction was terminated by the addition of EDTA and the phosphorylated and non-phosphorylated peptides separated using a LABCHIP® 3000 Reader (Caliper Life Sciences).

Sequence of Rho-associated protein kinase 2 (O75116 whole entry, looked up, change not shown): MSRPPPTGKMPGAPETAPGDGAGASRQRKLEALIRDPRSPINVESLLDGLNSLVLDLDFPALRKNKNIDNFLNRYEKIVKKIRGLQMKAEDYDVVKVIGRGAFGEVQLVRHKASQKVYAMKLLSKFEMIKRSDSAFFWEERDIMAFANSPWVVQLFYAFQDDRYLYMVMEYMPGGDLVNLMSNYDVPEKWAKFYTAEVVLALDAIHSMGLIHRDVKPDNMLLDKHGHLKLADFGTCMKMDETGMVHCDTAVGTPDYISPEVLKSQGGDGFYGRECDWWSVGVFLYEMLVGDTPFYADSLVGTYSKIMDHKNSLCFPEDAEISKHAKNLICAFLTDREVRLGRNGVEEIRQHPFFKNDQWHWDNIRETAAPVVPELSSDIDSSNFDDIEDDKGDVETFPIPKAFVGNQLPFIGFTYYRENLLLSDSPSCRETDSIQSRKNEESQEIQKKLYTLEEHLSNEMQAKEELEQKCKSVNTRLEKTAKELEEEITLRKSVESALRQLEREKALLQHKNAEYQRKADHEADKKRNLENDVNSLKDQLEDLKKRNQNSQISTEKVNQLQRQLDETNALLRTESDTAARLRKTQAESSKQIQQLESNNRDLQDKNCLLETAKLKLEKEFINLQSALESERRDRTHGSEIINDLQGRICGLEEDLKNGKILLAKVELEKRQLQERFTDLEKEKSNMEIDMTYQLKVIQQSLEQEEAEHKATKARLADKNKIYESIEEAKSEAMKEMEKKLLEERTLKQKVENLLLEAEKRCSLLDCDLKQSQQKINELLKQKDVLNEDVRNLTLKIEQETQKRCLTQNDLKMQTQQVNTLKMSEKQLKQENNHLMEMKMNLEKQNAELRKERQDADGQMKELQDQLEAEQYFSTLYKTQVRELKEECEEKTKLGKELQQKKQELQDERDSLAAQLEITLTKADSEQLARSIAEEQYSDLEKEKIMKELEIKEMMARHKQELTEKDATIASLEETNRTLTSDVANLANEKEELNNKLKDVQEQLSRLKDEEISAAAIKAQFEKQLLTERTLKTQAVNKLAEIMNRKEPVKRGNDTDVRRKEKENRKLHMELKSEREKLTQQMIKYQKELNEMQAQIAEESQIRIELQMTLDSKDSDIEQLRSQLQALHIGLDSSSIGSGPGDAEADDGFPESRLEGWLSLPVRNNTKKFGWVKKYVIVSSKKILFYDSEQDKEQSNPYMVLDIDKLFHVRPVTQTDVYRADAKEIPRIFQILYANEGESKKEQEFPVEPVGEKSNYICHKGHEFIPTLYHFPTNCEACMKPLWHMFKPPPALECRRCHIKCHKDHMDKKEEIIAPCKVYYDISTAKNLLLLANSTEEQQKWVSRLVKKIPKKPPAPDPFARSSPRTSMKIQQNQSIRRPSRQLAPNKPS

In general, IC50 refers to the concentration needed to halve the response being measured. The compound `COc1cc(C(=O)NCC2=CCC3NC(=O)NC3=C2)ccc1-c1cn[nH]c1` (stereo unspecified) yielded a half-maximal inhibitory concentration (IC50) of 662 nM. In other words, the sub-micromolar range.
